The values that follow come from patent US9493446B2, “Orexin receptor antagonists which are [ortho bi-(hetero-)aryl]-[2-(meta bi-(hetero-)aryl)-pyrrolidin-1-yl]-methanone derivatives” (Actelion Pharmaceuticals Ltd, priority 2012, dated 2016).

The target of one test is orexin-1 (Homo sapiens (Human), UniProt O43613). Description: Intracellular calcium measurement (FLIPR), CHO cells expressing human orexin-1 receptor, 3 nM orexin-A. It counts as cell-based. The conditions noted are these: read-out: IC50 OX1. The protocol:
(§1) In Vitro Assay: Intracellular Calcium Measurements:
(§2) Chinese hamster ovary (CHO) cells expressing the human orexin-1 receptor and the human orexin-2 receptor, respectively, are grown in culture medium (Ham F-12 with L-Glutamine) containing 300 μg/mL G418, 100 U/mL penicillin, 100 μg/mL streptomycin and 10% heat inactivated fetal calf serum (FCS). The cells are seeded at 20,000 cells/well into 384-well black clear bottom sterile plates (Greiner). The seeded plates are incubated overnight at 37° C. in 5% CO2.
(§3) Human orexin-A as an agonist is prepared as 1 mM stock solution in MeOH: water (1:1), diluted in HBSS containing 0.1% bovine serum albumin (BSA), NaHCO3: 0.375 g/L and 20 mM HEPES for use in the assay at a final concentration of 3 nM.
(§4) Antagonists are prepared as 10 mM stock solution in DMSO, then diluted in 384-well plates using DMSO followed by a transfer of the dilutions into in HBSS containing 0.1% bovine serum albumin (BSA), NaHCO3: 0.375 g/L and 20 mM HEPES. On the day of the assay, 50 μL of staining buffer (HBSS containing 1% FCS, 20 mM HEPES, NaHCO3: 0.375 g/L, 5 mM probenecid (Sigma) and 3 μM of the fluorescent calcium indicator fluo-4 AM (1 mM stock solution in DMSO, containing 10% pluronic) is added to each well. The 384-well cell-plates are incubated for 50 min at 37° C. in 5% CO2 followed by equilibration at rt for 30 min before measurement.
(§5) Within the Fluorescent Imaging Plate Reader (FLIPR Tetra, Molecular Devices), antagonists are added to the plate in a volume of 10 μL/well, incubated for 120 min and finally 10 μL/well of agonist is added. Fluorescence is measured for each well at 1 second intervals, and the height of each fluorescence peak is compared to the height of the fluorescence peak induced by 3 nM orexin-A with vehicle in place of antagonist. […] Optimized conditions were achieved by adjustment of pipetting speed and cell splitting regime. The calculated IC50 values may fluctuate depending on the daily cellular assay performance. Fluctuations of this kind are known to those skilled in the art.
Background: Calcium assays in cells follow changes in intracellular calcium, usually with a dye or a luminescent sensor.

For another test, the target named is human orexin-2 receptor (Homo sapiens (Human), UniProt O43614). Description: Intracellular calcium measurement (FLIPR), CHO cells expressing human orexin-2 receptor, 3 nM orexin-A. It is filed as cell-based. The conditions noted are these: CHO cells expressing human orexin-2 receptor, FLIPR, 3 nM orexin-A; geometric mean if determined several times; read-out: IC50 OX2. The protocol:
as §1, §2, §3, §4, §5

[1] abbreviates: CHO cells expressing human orexin-1 receptor, FLIPR, 3 nM orexin-A, geometric mean if determined several times.

Like-named read-outs stand apart in the source and are kept apart here.

orexin-1, sequence (O43613 whole entry): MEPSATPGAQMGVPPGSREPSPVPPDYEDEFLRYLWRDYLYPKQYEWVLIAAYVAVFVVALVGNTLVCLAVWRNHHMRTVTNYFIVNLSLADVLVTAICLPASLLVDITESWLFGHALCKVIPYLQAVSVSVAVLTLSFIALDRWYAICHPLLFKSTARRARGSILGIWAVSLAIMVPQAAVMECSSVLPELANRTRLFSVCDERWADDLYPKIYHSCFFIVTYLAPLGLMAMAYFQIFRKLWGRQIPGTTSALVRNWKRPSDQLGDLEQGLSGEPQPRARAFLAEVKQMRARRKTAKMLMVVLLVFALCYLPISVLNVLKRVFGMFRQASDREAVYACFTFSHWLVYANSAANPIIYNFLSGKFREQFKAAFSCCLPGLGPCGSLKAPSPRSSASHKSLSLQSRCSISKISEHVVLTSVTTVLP
human orexin-2 receptor, sequence (O43614 whole entry): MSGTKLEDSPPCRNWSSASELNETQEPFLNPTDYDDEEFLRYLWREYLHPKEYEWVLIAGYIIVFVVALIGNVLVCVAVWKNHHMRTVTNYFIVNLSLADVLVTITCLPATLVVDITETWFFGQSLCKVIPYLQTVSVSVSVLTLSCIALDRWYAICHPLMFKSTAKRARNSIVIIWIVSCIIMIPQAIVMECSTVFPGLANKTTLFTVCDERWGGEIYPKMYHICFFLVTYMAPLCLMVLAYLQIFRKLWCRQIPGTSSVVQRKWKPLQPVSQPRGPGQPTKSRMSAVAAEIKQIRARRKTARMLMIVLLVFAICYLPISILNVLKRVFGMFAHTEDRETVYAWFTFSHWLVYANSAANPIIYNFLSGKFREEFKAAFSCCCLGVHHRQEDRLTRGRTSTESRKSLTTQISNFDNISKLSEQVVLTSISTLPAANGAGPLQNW

As a reminder, the IC50 is the concentration that gives 50% inhibition. Turning to `Cc1ccc(-n2nccn2)c(C(=O)N2CCC[C@H]2c2cc(-c3ccccc3)n[nH]2)c1` [Example 530, (5-Methyl-2-[1,2,3]triazol-2-yl-phenyl)-[(S)-2-(5-phenyl-2H-pyrazol-3-yl)-pyrrolidin-1-yl]-methanone], the IC50 is 386 nM on orexin-1 (setting [1]) and 222 nM at human orexin-2 receptor.

With `Cc1ccc(-n2nccn2)c(C(=O)N2CCC[C@H]2c2ncn(-c3ccccc3)n2)c1` [Example 535, (5-Methyl-2-[1,2,3]triazol-2-yl-phenyl)-[(S)-2-(1-phenyl-1H-[1,2,4]triazol-3-yl)-pyrrolidin-1-yl]-methanone], the IC50 on orexin-1 (setting [1]) turned out to be 47 nM; at human orexin-2 receptor, 363 nM.

`Cc1ccc(-n2nccn2)c(C(=O)N2CCC[C@H]2c2cn(-c3ccccc3)nn2)c1` [Example 536, (5-Methyl-2-[1,2,3]triazol-2-yl-phenyl)-[(S)-2-(1-phenyl-1H-[1,2,3]triazol-4-yl)-pyrrolidin-1-yl]-methanone]: the concentration for half-maximal inhibition (IC50) amounted to 3430 nM on orexin-1 (setting [1]) and 2140 nM at human orexin-2 receptor.

`C[C@@]1(c2nc(-c3ccccc3)no2)CCCN1C(=O)c1ccccc1-n1nccn1` [Example 537, [(S)-2-Methyl-2-(3-phenyl-[1,2,4]oxadiazol-5-yl)-pyrrolidin-1-yl]-(2-[1,2,3]triazol-2-yl-phenyl)-methanone]: the IC50 came to 3980 nM at orexin-1 (setting [1]) and 2880 nM on human orexin-2 receptor.

Turning to `Cc1ccc(-n2nccn2)c(C(=O)N2CCC[C@@]2(C)c2nc(-c3ccccc3)no2)c1` [Example 540, [(S)-2-Methyl-2-(3-phenyl-[1,2,4]oxadiazol-5-yl)-pyrrolidin-1-yl]-(5-methyl-2-[1,2,3]triazol-2-yl-phenyl)-methanone], the IC50 at orexin-1 (setting [1]) came out at 211 nM; on human orexin-2 receptor, 581 nM.

For the compound `Cc1ccc(-n2nccn2)c(C(=O)N2CCC[C@@]2(C)c2nc(-c3cccc(Cl)c3C)no2)c1` [Example 541, {(S)-2-[3-(3-Chloro-2-methyl-phenyl)-[1,2,4]oxadiazol-5-yl]-2-methyl-pyrrolidin-1-yl}-(5-methyl-2-[1,2,3]triazol-2-yl-phenyl)-methanone], the IC50 at orexin-1 (setting [1]) was found to be 104 nM; on human orexin-2 receptor it was 114 nM.

For `Cc1ccc(-n2nccn2)c(C(=O)N2CCC[C@@]2(C)c2nnc(-c3ccccc3OC(F)(F)F)[nH]2)c1` [Example 542, (5-Methyl-2-[1,2,3]triazol-2-yl-phenyl)-{(S)-2-methyl-2-[5-(2-trifluoromethoxy-phenyl)-4H-[1,2,4]triazol-3-yl]-pyrrolidin-1-yl}-methanone], the IC50 at orexin-1 (setting [1]) was 33 nM; at human orexin-2 receptor it was 28 nM.

On to `O=C(c1cccs1)N1CCC[C@H]1c1nc(-c2ccccc2)no1` [Ref 1], for which the values for the IC50 at orexin-1 (setting [1]) and on human orexin-2 receptor were greater than 8500 nM and greater than 10000 nM, respectively.

Consider `O=C(c1cccs1)N1CCC[C@H]1c1nc(-c2cccc(Cl)c2)no1` [Ref 2], for which the values for the IC50 on orexin-1 (setting [1]) and on human orexin-2 receptor were 4260 nM and 7230 nM, respectively.

On to `Cc1ccccc1-c1noc([C@@H]2CCCN2C(=O)c2cccs2)n1` [Ref 3], for which the IC50 on orexin-1 (setting [1]) is 6270 nM; at human orexin-2 receptor, greater than 10000 nM.

In the case of `O=C(c1ccoc1)N1CCC[C@H]1c1nc(-c2ccccc2)no1` [Ref 4], the IC50 on orexin-1 (setting [1]) was greater than 8500 nM; on human orexin-2 receptor it was greater than 10000 nM.

Regarding `O=C(c1ccoc1)N1CCC[C@H]1c1nc(-c2cccc(Cl)c2)no1` [Ref 5], the IC50 on orexin-1 (setting [1]) was greater than 8500 nM; on human orexin-2 receptor, greater than 10000 nM.

`Cc1ccccc1-c1noc([C@@H]2CCCN2C(=O)c2ccoc2)n1` [Ref 6]: the IC50 on orexin-1 (setting [1]) is greater than 8500 nM; on human orexin-2 receptor, greater than 10000 nM.

Regarding `Cc1onc(-c2ccccc2Cl)c1C(=O)N1CCC[C@H]1c1nc(-c2cccc(Cl)c2C)no1` [Ref 7], the IC50 on orexin-1 (setting [1]) amounted to 529 nM; at human orexin-2 receptor, 593 nM.

For `Cc1onc(-c2ccccc2Cl)c1C(=O)N1CCC[C@H]1c1noc(-c2cccc(Cl)c2C)n1` [Ref 8], the concentration for half-maximal inhibition (IC50) on orexin-1 (setting [1]) is greater than 26200 nM; at human orexin-2 receptor, greater than 21800 nM.

As for `Cc1onc(-c2ccccc2Cl)c1C(=O)N1CCC[C@H]1c1nnc(-c2cccc(Cl)c2C)o1` [Ref 9], the IC50 on orexin-1 (setting [1]) was 11100 nM; at human orexin-2 receptor, greater than 21800 nM.

As for `Cc1onc(-c2ccccc2Cl)c1C(=O)N1CCC[C@H]1c1nc(-c2ccccc2OC(F)(F)F)no1` [Ref 10], the results for the IC50 at orexin-1 (setting [1]) and at human orexin-2 receptor were 782 nM and 2190 nM, respectively.

With `Cc1cc(C)cc(-c2noc([C@@H]3CCCN3C(=O)c3cc(C)ccc3-n3nccn3)n2)c1` [compound 11, {(S)-2-[3-(3,5-Dimethyl-phenyl)-[1,2,4]oxadiazol-5-yl]-pyrrolidin-1-yl}-(5-methyl-2-[1,2,3]triazol-2-yl-phenyl)-methanone], the IC50 was 58 nM on orexin-1 (setting [1]) and 6 nM on human orexin-2 receptor.

For the compound `Cc1cc(C)nc(-c2noc([C@@H]3CCCN3C(=O)c3cc(C)ccc3-n3nccn3)n2)c1` [compound 12, {(S)-2-[3-(4,6-Dimethyl-pyridin-2-yl)-[1,2,4]oxadiazol-5-yl]-pyrrolidin-1-yl}-(5-methyl-2-[1,2,3]triazol-2-yl-phenyl)-methanone], the IC50 turned out to be 796 nM at orexin-1 (setting [1]) and 816 nM on human orexin-2 receptor.

In the case of `Cc1ccc(-n2nccn2)c(C(=O)N2CCC[C@H]2c2nc(-c3cccc(C)c3C)no2)c1` [compound 13, {(S)-2-[3-(2,3-Dimethyl-phenyl)-[1,2,4]oxadiazol-5-yl]-pyrrolidin-1-yl}-(5-methyl-2-[1,2,3]triazol-2-yl-phenyl)-methanone], the figures for the IC50 at orexin-1 (setting [1]) and at human orexin-2 receptor were 70 nM and 13 nM, respectively.

For the compound `Cc1ccc(-n2nccn2)c(C(=O)N2CCC[C@H]2c2nc(-c3cccc(F)c3)no2)c1` [compound 14, {(S)-2-[3-(3-Fluoro-phenyl)-[1,2,4]oxadiazol-5-yl]-pyrrolidin-1-yl}-(5-methyl-2-[1,2,3]triazol-2-yl-phenyl)-methanone], the IC50 came to 392 nM on orexin-1 (setting [1]) and 295 nM at human orexin-2 receptor.

In the case of `Cc1ccc(-n2nccn2)c(C(=O)N2CCC[C@H]2c2nc(-c3c[nH]c4ccccc34)no2)c1` [compound 15, {(S)-2-[3-(1H-Indol-3-yl)-[1,2,4]oxadiazol-5-yl]-pyrrolidin-1-yl}-(5-methyl-2-[1,2,3]triazol-2-yl-phenyl)-methanone], the IC50 on orexin-1 (setting [1]) came to 21 nM; on human orexin-2 receptor, 8 nM.

Consider `Cc1ccc(-n2nccn2)c(C(=O)N2CCC[C@H]2c2nc(-c3ccccc3C)no2)c1` [compound 16, (5-Methyl-2-[1,2,3]triazol-2-yl-phenyl)-[(S)-2-(3-o-tolyl-[1,2,4]oxadiazol-5-yl)-pyrrolidin-1-yl]-methanone], for which the figures for the IC50 at orexin-1 (setting [1]) and at human orexin-2 receptor were 128 nM and 16 nM, respectively.

In the case of `Cc1ccc(-n2nccn2)c(C(=O)N2CCC[C@H]2c2nc(-c3ccccc3OC(F)(F)F)no2)c1` [compound 17, (5-Methyl-2-[1,2,3]triazol-2-yl-phenyl)-{(S)-2-[3-(2-trifluoromethoxy-phenyl)-[1,2,4]oxadiazol-5-yl]-pyrrolidin-1-yl}-methanone], the IC50 at orexin-1 (setting [1]) was 8 nM; on human orexin-2 receptor it was 5 nM.

For the compound `Cc1ccc(-n2nccn2)c(C(=O)N2CCC[C@H]2c2nc(-c3cccc(Cl)c3)no2)c1` [compound 18], the values for the IC50 at orexin-1 and at human orexin-2 receptor were 91 nM and 32 nM, respectively.

Consider `Cc1ccc(-n2nccn2)c(C(=O)N2CCC[C@H]2c2nc(-c3ccc4c(c3)OC(F)(F)O4)no2)c1` [compound 19, {(S)-2-[3-(2,2-Difluoro-benzo[1,3]dioxol-5-yl)-[1,2,4]oxadiazol-5-yl]-pyrrolidin-1-yl}-(5-methyl-2-[1,2,3]triazol-2-yl-phenyl)-methanone], for which the IC50 on orexin-1 (setting [1]) is 1860 nM; at human orexin-2 receptor it was 652 nM.

With `Cc1ccc(-n2nccn2)c(C(=O)N2CCC[C@H]2c2nc(-c3ccc(F)c(F)c3)no2)c1` [compound 20, {(S)-2-[3-(3,4-Difluoro-phenyl)-[1,2,4]oxadiazol-5-yl]-pyrrolidin-1-yl}-(5-methyl-2-[1,2,3]triazol-2-yl-phenyl)-methanone], the IC50 amounted to 600 nM on orexin-1 (setting [1]) and 177 nM at human orexin-2 receptor.

Turning to `Cc1ccc(-n2nccn2)c(C(=O)N2CCC[C@H]2c2nc(-c3ccccc3Cl)no2)c1` [compound 21], the IC50 at orexin-1 (setting [1]) is 339 nM; on human orexin-2 receptor, 19 nM.

Take `Cc1ccc(-n2nccn2)c(C(=O)N2CCC[C@H]2c2nc(-c3ccc4c(c3)OCO4)no2)c1` [compound 22, [(S)-2-(3-Benzo[1,3]dioxol-5-yl-[1,2,4]oxadiazol-5-yl)-pyrrolidin-1-yl]-(5-methyl-2-[1,2,3]triazol-2-yl-phenyl)-methanone]: the values for the IC50 on orexin-1 (setting [1]) and on human orexin-2 receptor were 942 nM and 322 nM, respectively.

Regarding `Cc1ccc(-n2nccn2)c(C(=O)N2CCC[C@H]2c2nc(-c3cccc(Cl)c3C)no2)c1` [compound 23], the 50% inhibitory concentration (IC50) at orexin-1 (setting [1]) is 40 nM; at human orexin-2 receptor, 7 nM.
